Experimental data published in patent US11497752B2, “Compounds and uses thereof” (Foghorn Therapeutics Inc., priority 2018, dated 2022).
pIC50: −log10 of the molar value.

What was measured:
BRM = BRM (Homo sapiens, UniProt P51531); assay: ATPase catalytic activity of BRM (ADP-Glo in vitro biochemical assay); details: for BRM Max % Inhibition: Table 6
BRG-1 = BRG-1 (Homo sapiens, UniProt P51532); assay: ATPase catalytic activity of BRG-1 (ADP-Glo in vitro biochemical assay); details: for BRG1 Max % Inhibition: Table 6
Sequence of BRG-1 (P51532 whole entry): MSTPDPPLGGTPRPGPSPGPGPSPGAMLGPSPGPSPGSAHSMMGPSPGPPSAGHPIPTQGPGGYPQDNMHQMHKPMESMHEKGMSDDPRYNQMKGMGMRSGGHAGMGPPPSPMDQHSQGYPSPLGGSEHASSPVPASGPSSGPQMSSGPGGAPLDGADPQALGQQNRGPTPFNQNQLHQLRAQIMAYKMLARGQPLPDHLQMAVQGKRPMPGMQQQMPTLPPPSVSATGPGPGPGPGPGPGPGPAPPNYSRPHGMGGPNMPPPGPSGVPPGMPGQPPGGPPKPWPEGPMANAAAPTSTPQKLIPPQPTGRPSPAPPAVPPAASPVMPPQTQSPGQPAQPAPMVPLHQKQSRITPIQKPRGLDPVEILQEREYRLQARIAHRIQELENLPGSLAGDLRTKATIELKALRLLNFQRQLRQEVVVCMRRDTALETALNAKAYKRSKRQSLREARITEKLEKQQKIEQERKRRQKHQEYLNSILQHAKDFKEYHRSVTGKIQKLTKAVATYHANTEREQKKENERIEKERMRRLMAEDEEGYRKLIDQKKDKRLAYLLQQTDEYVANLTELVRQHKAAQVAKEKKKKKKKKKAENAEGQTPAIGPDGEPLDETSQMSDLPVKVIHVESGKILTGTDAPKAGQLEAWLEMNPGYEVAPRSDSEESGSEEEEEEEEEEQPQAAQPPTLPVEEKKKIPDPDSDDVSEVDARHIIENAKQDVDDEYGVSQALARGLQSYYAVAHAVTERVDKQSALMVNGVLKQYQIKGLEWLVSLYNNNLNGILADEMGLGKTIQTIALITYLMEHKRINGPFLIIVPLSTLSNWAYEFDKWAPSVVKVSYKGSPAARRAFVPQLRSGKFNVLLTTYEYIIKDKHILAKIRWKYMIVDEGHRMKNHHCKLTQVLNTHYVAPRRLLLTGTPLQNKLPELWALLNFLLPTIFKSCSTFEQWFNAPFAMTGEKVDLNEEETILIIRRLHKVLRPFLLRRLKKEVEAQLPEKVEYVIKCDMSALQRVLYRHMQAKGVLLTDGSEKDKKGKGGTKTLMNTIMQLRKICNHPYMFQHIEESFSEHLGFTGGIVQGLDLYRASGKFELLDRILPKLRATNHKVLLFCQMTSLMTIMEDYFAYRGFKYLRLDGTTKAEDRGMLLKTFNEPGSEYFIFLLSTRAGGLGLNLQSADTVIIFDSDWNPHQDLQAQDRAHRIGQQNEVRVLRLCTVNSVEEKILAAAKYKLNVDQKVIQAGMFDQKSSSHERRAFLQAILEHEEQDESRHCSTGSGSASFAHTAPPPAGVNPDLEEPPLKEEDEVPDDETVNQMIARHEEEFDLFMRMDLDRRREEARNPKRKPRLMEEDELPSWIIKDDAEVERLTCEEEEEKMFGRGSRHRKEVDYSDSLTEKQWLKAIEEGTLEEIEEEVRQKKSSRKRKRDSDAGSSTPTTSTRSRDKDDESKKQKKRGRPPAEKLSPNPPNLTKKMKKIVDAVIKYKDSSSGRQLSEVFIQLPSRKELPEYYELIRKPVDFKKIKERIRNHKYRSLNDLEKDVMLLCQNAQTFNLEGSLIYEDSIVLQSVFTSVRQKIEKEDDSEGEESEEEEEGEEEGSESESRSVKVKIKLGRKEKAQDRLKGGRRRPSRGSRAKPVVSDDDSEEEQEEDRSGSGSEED

Sequence of BRM (P51531 whole entry): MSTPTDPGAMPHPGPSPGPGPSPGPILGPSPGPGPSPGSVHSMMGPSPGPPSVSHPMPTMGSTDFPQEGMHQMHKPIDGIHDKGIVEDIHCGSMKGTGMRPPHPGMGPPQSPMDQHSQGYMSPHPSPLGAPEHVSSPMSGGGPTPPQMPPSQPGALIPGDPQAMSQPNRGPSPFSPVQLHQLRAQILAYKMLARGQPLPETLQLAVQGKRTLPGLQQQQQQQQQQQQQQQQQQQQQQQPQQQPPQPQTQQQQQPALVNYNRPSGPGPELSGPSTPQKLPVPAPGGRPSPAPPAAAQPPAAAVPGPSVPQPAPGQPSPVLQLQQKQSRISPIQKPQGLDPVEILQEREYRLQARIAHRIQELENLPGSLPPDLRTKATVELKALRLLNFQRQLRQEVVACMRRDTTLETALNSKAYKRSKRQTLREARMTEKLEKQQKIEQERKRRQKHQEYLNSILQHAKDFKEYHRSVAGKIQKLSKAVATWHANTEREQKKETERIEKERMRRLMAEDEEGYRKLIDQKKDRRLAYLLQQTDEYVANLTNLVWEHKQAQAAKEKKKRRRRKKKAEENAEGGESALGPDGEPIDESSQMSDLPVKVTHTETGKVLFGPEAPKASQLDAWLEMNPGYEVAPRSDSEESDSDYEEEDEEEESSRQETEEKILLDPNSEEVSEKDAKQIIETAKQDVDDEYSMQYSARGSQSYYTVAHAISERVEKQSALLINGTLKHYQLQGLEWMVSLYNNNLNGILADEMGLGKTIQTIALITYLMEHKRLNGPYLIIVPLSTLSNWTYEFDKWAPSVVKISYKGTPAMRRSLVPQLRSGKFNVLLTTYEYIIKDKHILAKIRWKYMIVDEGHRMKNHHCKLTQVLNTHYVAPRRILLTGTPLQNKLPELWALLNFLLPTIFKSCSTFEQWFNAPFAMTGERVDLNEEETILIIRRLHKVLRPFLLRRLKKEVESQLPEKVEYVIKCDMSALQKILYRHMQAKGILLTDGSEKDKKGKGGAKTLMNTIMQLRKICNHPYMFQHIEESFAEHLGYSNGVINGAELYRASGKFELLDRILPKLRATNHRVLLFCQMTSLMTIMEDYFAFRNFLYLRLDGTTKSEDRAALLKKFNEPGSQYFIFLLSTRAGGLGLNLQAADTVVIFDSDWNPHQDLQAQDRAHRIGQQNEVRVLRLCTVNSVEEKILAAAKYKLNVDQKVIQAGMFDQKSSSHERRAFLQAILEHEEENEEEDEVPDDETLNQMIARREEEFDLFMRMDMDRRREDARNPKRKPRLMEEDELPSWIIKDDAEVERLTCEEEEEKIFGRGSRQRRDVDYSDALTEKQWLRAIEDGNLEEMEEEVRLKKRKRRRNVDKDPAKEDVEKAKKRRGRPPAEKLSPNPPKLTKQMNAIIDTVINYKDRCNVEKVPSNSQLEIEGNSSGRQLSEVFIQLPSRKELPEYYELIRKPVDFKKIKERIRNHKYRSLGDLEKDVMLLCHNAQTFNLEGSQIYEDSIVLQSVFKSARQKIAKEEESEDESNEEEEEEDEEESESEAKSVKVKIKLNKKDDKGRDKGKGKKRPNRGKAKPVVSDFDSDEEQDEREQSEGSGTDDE

pIC50 (BRM)	BRM Max % Inhibition (BRM) [%]	pIC50 (BRG-1)	BRG1 Max % Inhibition (BRG-1) [%]	SMILES
6.00 to 7.00	>90	6.00 to 7.00	>90	Cc1nnc(C(=O)NC(C)(C)c2cc(-c3cccc(-c4csc(NC(=O)CNC(=O)c5ccc(N)cc5)n4)c3)ccn2)o1 [Compound 215, N-[1-[4-[3-[2-[[2-[(4-aminobenzoyl)amino]acetyl]amino]thiazol-4-yl]phenyl]-2-pyridyl]-1-methyl-ethyl]-5-methyl-1,3,4-oxadiazole-2-carboxamide]
> 7.00	>90	6.00 to 7.00	>95	CNC(=O)Cn1ccc(-c2cccc(-c3csc(NC(=O)CNC(=O)c4ccc(N)cc4)n3)c2)n1 [Compound 216, 4-amino-N-[2-[[4-[3-[1-[2-(methylamino)-2-oxo-ethyl]pyrazol-3-yl]phenyl]thiazol-2-yl]amino]-2-oxo-ethyl]benzamide]
6.00 to 7.00	>95	5.00 to 6.00	>80	Cn1cnc(-c2cccc(-c3csc(NC(=O)CNC(=O)c4ccc(N)cc4)n3)c2)c1 [Compound 220, 4-amino-N-[2-[[4-[3-(1-methylimidazol-4-yl)phenyl]thiazol-2-yl]amino]-2-oxo-ethyl]benzamide]

Continued, molecule first:

SMILES	pIC50 (BRM)	BRM Max % Inhibition (BRM) [%]	pIC50 (BRG-1)	BRG1 Max % Inhibition (BRG-1) [%]
CNC(=O)C(C)(C)n1ccc(-c2cccc(-c3csc(NC(=O)CNC(=O)c4ccc(N)cc4)n3)c2)n1 [Compound 213, 4-amino-N-[2-[[4-[3-[1-[1,1-dimethyl-2-(methylamino)-2-oxo-ethyl]pyrazol-3-yl]phenyl]thiazol-2-yl]amino]-2-oxo-ethyl]benzamide]	> 7.00	>95	> 7.00	>95
CSCC[C@H](NC(=O)c1ccc(N)cc1)C(=O)Nc1nc(-c2cccc(-c3ccnc(C)c3)c2)cs1 [Compound 214, (S)-4-amino-N-(1-((4-(3-(2-methylpyridin-4-yl)phenyl)thiazol-2-yl)amino)-4-(methylthio)-1-oxobutan-2-yl)benzamide]	> 7.00	>95	> 7.00	>95
Nc1ccc(C(=O)NCC(=O)Nc2nc(-c3ccnc(-c4ccncc4)c3)cs2)cc1 [Compound 217, 4-amino-N-[2-oxo-2-[[4-[2-(4-pyridyl)-4-pyridyl]thiazol-2-yl]amino]ethyl]benzamide]	> 7.00	>90	> 7.00	>90
Nc1ccc(C(=O)NCC(=O)Nc2nc(-c3cccc(CCc4ccncc4)c3)cs2)cc1 [Compound 218, 4-amino-N-[2-oxo-2-[[4-[3-[2-(4-pyridyl)ethyl]phenyl]thiazol-2-yl]amino]ethyl]benzamide]	> 7.00	>95	6.00 to 7.00	>90
Nc1ccc(C(=O)NCC(=O)Nc2nc(-c3cccc(-c4ccnc(C5(C(=O)O)CC5)c4)c3)cs2)cc1 [Compound 219, 1-[4-[3-[2-[[2-[(4-aminobenzoyl)amino]acetyl]amino]thiazol-4-yl]phenyl]-2-pyridyl]cyclopropanecarboxylic acid]	> 7.00	>95	> 7.00	>95
Nc1ccc(C(=O)NCC(=O)Nc2nc(-c3cccc(-c4ccnc(N5CCCC(N)C5)c4)c3)cs2)cc1 (stereo not shown) [Compound 221, 4-amino-N-[2-[[4-[3-[2-(3-amino-1-piperidyl)-4-pyridyl]phenyl]thiazol-2-yl]amino]-2-oxo-ethyl]benzamide]	6.00 to 7.00	>95	6.00 to 7.00	>80
Cc1nc(-c2cccc(-c3csc(NC(=O)CNC(=O)c4ccc(N)cc4)n3)c2)cn1C [Compound 222, 4-amino-N-[2-[[4-[3-(1,2-dimethylimidazol-4-yl)phenyl]thiazol-2-yl]amino]-2-oxo-ethyl]benzamide]	6.00 to 7.00	>95	6.00 to 7.00	>80
